In patent US9102670B2, “Pyrido-, pyrazo- and pyrimido-pyrimidine derivatives as mTOR inhibitors” (KuDOS Pharmaceuticals Limited, priority 2006, dated 2015) one finds IC50 data, which are given here for 65 compounds.

In one assay the test system is phosphorylation of Serine 473 in Akt. As to the kind of experiment: In Vitro Phospho-Ser473 Akt Assay in MDA-MB-468 cells. It counts as cell-based. The settings on record: Homo sapiens, MDA-MB-468, read-out: IC50 values against mTOR, phospho-Ser473 Akt assay, MDA-MB-468 cells.
A word on the IC50: it is the point on the concentration scale where inhibition reaches its midpoint. As for `C[C@H]1COCCN1c1nc(N2CCOC[C@@H]2C)c2ccc(-c3cccc(CNC(=O)C(F)(F)F)c3)nc2n1` [Example 5g], the IC50 is less than 300 nM.

Regarding `C[C@H]1COCCN1c1nc(N2CCOC[C@@H]2C)c2ccc(-c3cccc(CN(C)C(=O)C(F)(F)F)c3)nc2n1` [Example 5n], the concentration for half-maximal inhibition (IC50) is less than 300 nM.

Consider `CC(=O)NCc1ccc(-c2ccc3c(N4CCOC[C@@H]4C)nc(N4CCOC[C@@H]4C)nc3n2)cc1` [Example 5q], for which the IC50 is less than 100 nM.

With `COCC(=O)N(C)Cc1ccc(-c2ccc3c(N4CCOC[C@@H]4C)nc(N4CCOC[C@@H]4C)nc3n2)cc1` [Example 5s], the IC50 was less than 300 nM.

For `C[C@H]1COCCN1c1nc(N2CCOC[C@@H]2C)c2ccc(-c3ccc(F)c(CNC(=O)C4CC4)c3)nc2n1` [Example 5v], the IC50 is less than 300 nM.

Consider `C[C@H]1COCCN1c1nc(N2CCOC[C@@H]2C)c2ccc(-c3ccoc3CO)nc2n1` [Example 6a], for which the IC50 was less than 300 nM.

Take `CNCc1ccc(-c2ccc3c(N4CCOC[C@@H]4C)nc(N4CCOC[C@@H]4C)nc3n2)o1` [Example 7c]: the IC50 was less than 100 nM.

`CCNCc1ccc(-c2ccc3c(N4CCOC[C@@H]4C)nc(N4CCOC[C@@H]4C)nc3n2)o1` [Example 7d]: the IC50 was less than 100 nM.

On to `C[C@H]1COCCN1c1nc(N2CCOC[C@@H]2C)c2ccc(-c3ccc(CNC4CCOCC4)o3)nc2n1` [Example 7f], for which the IC50 is less than 100 nM.

As for `C[C@H]1COCCN1c1nc(N2CCOC[C@@H]2C)c2ccc(-c3ccc(CNCC4CC4)o3)nc2n1` [Example 7g], the IC50 was less than 100 nM.

Take `CC(C)NCc1ccc(-c2ccc3c(N4CCOC[C@@H]4C)nc(N4CCOC[C@@H]4C)nc3n2)o1` [Example 7k]: the IC50 is less than 100 nM.

As for `C[C@H]1COCCN1c1nc(N2CCOC[C@@H]2C)c2ccc(-c3cccc(C(=O)NCCO)c3)nc2n1` [Example 8a], the IC50 was less than 100 nM.

Take `COc1ccc(-c2ccc3c(N4CCOC[C@@H]4C)nc(N4CCOC[C@@H]4C)nc3n2)cc1C(=O)NCCO` [Example 8b]: the IC50 was less than 100 nM.

With `COCc1cc(-c2ccc3c(N4CCOC[C@@H]4C)nc(N4CCOC[C@@H]4C)nc3n2)ccc1F` [Example 9a], the IC50 is less than 300 nM.

`C[C@@H]1CN(c2nc(N3CCOC[C@@H]3C)c3ncc(-c4ccccc4)nc3n2)C[C@H](C)O1` [Example 12a]: the IC50 was less than 100 nM.

On to `Cc1ccc(-c2cnc3c(N4CCOC[C@@H]4C)nc(N4CCOC[C@@H]4C)nc3n2)cc1` [Example 12c], for which the IC50 was less than 100 nM.

`C[C@H]1COCCN1c1nc(N2CCOC[C@@H]2C)c2ncc(-c3ccccc3)nc2n1` [Example 12d]: the IC50 is less than 300 nM.

With `C[C@H]1COCCN1c1nc(N2CCOC[C@@H]2C)c2ccc(-c3ccc(OCCN(C)C)nc3)nc2n1` [Example 13b], the IC50 is less than 300 nM.

For `COc1ccc(-c2ccc3c(N4CCOC[C@@H]4C)nc(N4CCOC[C@@H]4C)nc3n2)cc1C(N)=O` [Example 14b], the half-maximal inhibitory concentration (IC50) was less than 100 nM.

As for `COc1ccc(-c2ccc3c(N4CCOC[C@@H]4C)nc(N4CCCC[C@H]4C)nc3n2)cc1CO` [Example 18a], the IC50 was less than 100 nM.

For `COc1ccc(-c2ccc3c(N4CCOC[C@@H]4C)nc(N4CC[C@H](O)C4)nc3n2)cc1CO` [Example 18ab], the concentration for half-maximal inhibition (IC50) is less than 300 nM.

As to `COc1ccc(-c2ccc3c(N4CCOC[C@@H]4C)nc(N4CCC(N5CCOCC5)CC4)nc3n2)cc1CO` [Example 18ac], the 50% inhibitory concentration (IC50) is less than 100 nM.

Consider `COc1ccc(-c2ccc3c(N4CCOC[C@@H]4C)nc(N4CCC(N)CC4)nc3n2)cc1CO` [Example 18ad], for which the IC50 is less than 100 nM.

As to `COc1ccc(-c2ccc3c(N4CCOC[C@@H]4C)nc(N4CC(C)CC(C)C4)nc3n2)cc1CO` (some centres unmarked) [Example 18ae], the IC50 is less than 100 nM.

On to `COc1ccc(-c2ccc3c(N4CCOC[C@@H]4C)nc(N4CCC(C(F)(F)F)CC4)nc3n2)cc1CO` [Example 18af], for which the IC50 was less than 300 nM.

Take `COC(=O)[C@@H]1CCCN1c1nc(N2CCOC[C@@H]2C)c2ccc(-c3ccc(OC)c(CO)c3)nc2n1` [Example 18ah]: the IC50 was less than 100 nM.

Take `COc1ccc(-c2ccc3c(N4CCOC[C@@H]4C)nc(N4CCCC(OC)C4)nc3n2)cc1CO` (some centres unmarked) [Example 18aj]: the IC50 was less than 300 nM.

Regarding `COc1ccc(-c2ccc3c(N4CCOC[C@@H]4C)nc(N4CCC(C(=O)c5ccc(Cl)cc5)CC4)nc3n2)cc1CO` [Example 18ak], the IC50 was less than 100 nM.

As for `COc1ccc(-c2ccc3c(N4CCOC[C@@H]4C)nc(N4CCC(O)(c5ccccc5)CC4)nc3n2)cc1CO` [Example 18am], the IC50 was less than 100 nM.

With `COc1ccc(-c2ccc3c(N4CCOC[C@@H]4C)nc(N4CCC(C#N)(c5ccccc5)CC4)nc3n2)cc1CO` [Example 18an], the IC50 is less than 100 nM.

With `COc1ccc(-c2ccc3c(N4CCOC[C@@H]4C)nc(N4CCCC4C)nc3n2)cc1CO` (some centres unmarked) [Example 18ap], the IC50 is less than 100 nM.

For the compound `COc1ccc(-c2ccc3c(N4CCOC[C@@H]4C)nc(N4CCC(c5ccc(Cl)cc5)CC4)nc3n2)cc1CO` [Example 18aq], the IC50 was less than 300 nM.

Consider `COc1ccc(-c2ccc3c(N4CCOC[C@@H]4C)nc(N4CCCC(c5nc(C)no5)C4)nc3n2)cc1CO` (some centres unmarked) [Example 18ar], for which the IC50 is less than 100 nM.

`COc1ccc(-c2ccc3c(N4CCOC[C@@H]4C)nc(N4CCCC(CN(C)C)C4)nc3n2)cc1CO` (some centres unmarked) [Example 18as]: the IC50 is less than 300 nM.

`COc1ccc(-c2ccc3c(N4CCOC[C@@H]4C)nc(N4CCCC(N)C4)nc3n2)cc1CO` (some centres unmarked) [Example 18au]: the IC50 was less than 100 nM.

In the case of `COc1ccc(-c2ccc3c(N4CCOC[C@@H]4C)nc(NC(C)CC(C)C)nc3n2)cc1CO` (some centres unmarked) [Example 18av], the IC50 was less than 300 nM.

As for `COc1ccc(-c2ccc3c(N4CCOC[C@@H]4C)nc(NC4CCCC4)nc3n2)cc1CO` [Example 18aw], the IC50 was less than 100 nM.

`COCC(C)Nc1nc(N2CCOC[C@@H]2C)c2ccc(-c3ccc(OC)c(CO)c3)nc2n1` (some centres unmarked) [Example 18ax]: the IC50 was less than 100 nM.

`COc1ccc(-c2ccc3c(N4CCOC[C@@H]4C)nc(-n4ccnc4)nc3n2)cc1CO` [Example 18ay]: the IC50 was less than 300 nM.

With `COc1ccc(-c2ccc3c(N4CCOC[C@@H]4C)nc(-n4cnc(C)c4C=O)nc3n2)cc1CO` [Example 18ba], the IC50 was less than 100 nM.

As for `COc1ccc(-c2ccc3c(N4CCOC[C@@H]4C)nc(-n4cnc(Br)c4)nc3n2)cc1CO` [Example 18bb], the IC50 was less than 300 nM.

As for `COc1ccc(-c2ccc3c(N4CCOC[C@@H]4C)nc(-n4cc(Br)nc4C)nc3n2)cc1CO` [Example 18bc], the IC50 is less than 300 nM.

In the case of `CCC1CCC(C)N(c2nc(N3CCOC[C@@H]3C)c3ccc(-c4ccc(OC)c(CO)c4)nc3n2)C1` (some centres unmarked) [Example 18bd], the IC50 is less than 100 nM.

Take `COc1ccc(-c2ccc3c(N4CCOC[C@@H]4C)nc(N4CCC(c5ccccc5)CC4)nc3n2)cc1CO` [Example 18be]: the IC50 is less than 100 nM.

As to `COc1ccc(-c2ccc3c(N4CCOC[C@@H]4C)nc(N4CCOC(c5ccccc5)C4)nc3n2)cc1CO` (some centres unmarked) [Example 18bf], the IC50 is less than 300 nM.

As for `COc1ccc(-c2ccc3c(N4CCOC[C@@H]4C)nc(N4C(C)CCC4C)nc3n2)cc1CO` (some centres unmarked) [Example 18bg], the IC50 was less than 100 nM.

Regarding `COc1ccc(-c2ccc3c(N4CCOC[C@@H]4C)nc(N4CCC(c5ccncc5)CC4)nc3n2)cc1CO` [Example 18bi], the IC50 is less than 100 nM.

`COc1ccc(-c2ccc3c(N4CCOC[C@@H]4C)nc(N4CCC[C@H](O)C4)nc3n2)cc1CO` [Example 18bj]: the IC50 was less than 100 nM.

Still in this assay, the particulars now being: Homo sapiens, MDA-MB-468, read-out: IC50 values against mTOR, phospho-Ser473 Akt assay, MDA-MB-468 cells, upper bound.
Consider `CC(C)CC(=O)NCc1cccc(-c2ccc3c(N4CCOC[C@@H]4C)nc(N4CCOC[C@@H]4C)nc3n2)c1` [Example 5f], for which the IC50 is less than 1000 nM.

Regarding `CC(=O)N(C)Cc1ccc(-c2ccc3c(N4CCOC[C@@H]4C)nc(N4CCOC[C@@H]4C)nc3n2)cc1` [Example 5r], the IC50 was less than 1000 nM.

`CC(=O)NCc1cc(-c2ccc3c(N4CCOC[C@@H]4C)nc(N4CCOC[C@@H]4C)nc3n2)ccc1F` [Example 5t]: the IC50 was less than 1000 nM.

On to `COCC(=O)NCc1cc(-c2ccc3c(N4CCOC[C@@H]4C)nc(N4CCOC[C@@H]4C)nc3n2)ccc1F` [Example 5u], for which the 50% inhibitory concentration (IC50) is less than 1000 nM.

For `CC(C)C(=O)NCc1cc(-c2ccc3c(N4CCOC[C@@H]4C)nc(N4CCOC[C@@H]4C)nc3n2)ccc1F` [Example 5w], the IC50 is less than 1000 nM.

Consider `C[C@H]1COCCN1c1nc(N2CCOC[C@@H]2C)c2ccc(-c3ccc(F)c(CNC(=O)C4CCC4)c3)nc2n1` [Example 5x], for which the IC50 is less than 1000 nM.

Take `CC(C)CC(=O)NCc1cc(-c2ccc3c(N4CCOC[C@@H]4C)nc(N4CCOC[C@@H]4C)nc3n2)ccc1F` [Example 5y]: the IC50 was less than 1000 nM.

On to `C[C@H]1COCCN1c1nc(N2CCOC[C@@H]2C)c2ccc(-c3ccc(F)c(CNC(=O)C(F)(F)F)c3)nc2n1` [Example 5z], for which the IC50 was less than 1000 nM.

`C[C@H]1COCCN1c1nc(N2CCOC[C@@H]2C)c2ccc(-c3ccc(CNC4CC4)o3)nc2n1` [Example 7e]: the IC50 was less than 1000 nM.

As for `C[C@H]1COCCN1c1nc(N2CCOC[C@@H]2C)c2ccc(-c3ccc(CNc4cc[nH]n4)o3)nc2n1` [Example 7i], the IC50 was less than 1000 nM.

For the compound `C[C@H]1COCCN1c1nc(N2CCOC[C@@H]2C)c2ccc(-c3ccc(CNCC(N)=O)o3)nc2n1` [Example 7j], the IC50 is less than 1000 nM.

For the compound `Cc1ccc(-c2cnc3c(N4CCOC[C@@H]4C)nc(N4C[C@@H](C)O[C@@H](C)C4)nc3n2)cc1` [Example 12b], the IC50 is less than 1000 nM.

For the compound `COC(=O)[C@@H]1C[C@@H](O)CN1c1nc(N2CCOC[C@@H]2C)c2ccc(-c3ccc(OC)c(CO)c3)nc2n1` [Example 18aa], the IC50 was less than 1000 nM.

As to `COc1ccc(-c2ccc3c(N4CCOC[C@@H]4C)nc(N4CCC5CCCCC5C4)nc3n2)cc1CO` (some centres unmarked) [Example 18ag], the half-maximal inhibitory concentration (IC50) was less than 1000 nM.

In the case of `COc1ccc(-c2ccc3c(N4CCOC[C@@H]4C)nc(N4CCC(N5CCCC5)CC4)nc3n2)cc1CO` [Example 18ai], the IC50 is less than 1000 nM.

For `COc1ccc(-c2ccc3c(N4CCOC[C@@H]4C)nc(N4CCC(Cc5ccccc5)CC4)nc3n2)cc1CO` [Example 18al], the IC50 is less than 1000 nM.

With `COC(=O)c1cncn1-c1nc(N2CCOC[C@@H]2C)c2ccc(-c3ccc(OC)c(CO)c3)nc2n1` [Example 18az], the IC50 was less than 1000 nM.
